# Laboratory results reported in patent US4755594A, “N^6 -substituted adenosines” (Warner-Lambert Company, priority 1986, dated 1988).
# What was measured:
# [1] = Antihypertensive evaluation (AHP3), aortic blood pressure in conscious rats; assay type: in vivo; conditions: conscious rat
# Description: ANTIHYPERTENSIVE EVALUATION (AHP3)
# This test procedure is described in the following paragraphs.
# A Method for the Direct Monitoring of Aortic Blood
# Pressure and Heart Rate from Conscious Rats
# The continuous monitoring of pulsatile blood pressure (BP) from unrestrained conscious rats surgically equipped with polyethylene cannulas was accomplished by means of a computer assisted data capture scheme (CADCS). The basic elements of the methodology are the cannulation procedure and the CADCS.
# Rats were anesthetized with Telazol (1:1 tiletamine HCl and zolazepam HCl); 20-40 mg/kg IM and the descending aorta exposed via a midline incision. Cannulas fabricated from polyethylene tubing were inserted into the aorta via an undersized puncture hole below the renal arteries. The puncture hole was made by a 23 G disposable needle with a section of the aorta clamped off above and below the puncture site. The cannulas, consisting of a PE100 (0.86 mm ID) body and a PE50 (0.58 mm ID) tip, were attached to a trocar, inserted through the psoas muscle, and passed subcutaneously along the midline of the back and externalized between the ears. The cannulas were anchored to the psoas muscle and between the scalulae (3-0 green braided suture). The midline incision was closed in two steps (muscle first, skin second) using continuous over-and-over sutures (4-0 chronic). Each rat was then given penicillin 30,000 units subcutaneously (Penicillin G Procaine Sterile Suspension).
# The rats were fitted with a harness-spring-swivel assembly designed to protect the cannula and to provide the rat relative freedom of movement. The harnesses were fabricated from nylon hook and loop tape cemented to a metal plate to which spring wires (18-8 stainless steel) were attached to brass swivels. Each polyethylene cannula was channeled through a spring and connected through a swivel to a pressure transducer (Model P23Gb; Statham Instruments; Hato Rey, Puerto Rico) and an infusion pump (Sage model 234-7; Orion Research, Cambridge MA) by means of PE100 tubing. While on test, each rat received a continuous slow infusion of heparinized saline solution (approximately 400 μl or 40 units of heparin per 24 hours period) to prevent clot formation. Additional "flushes" of the cannula with heparinized saline were carried out when the aortic pulse pressure (systolic minus diastolic) was less than 25 mm Hg.
# The pulsatile blood pressure and heart rate of each of 32 rats was monitored every minute by means of two in-laboratory microcomputers communicating directly with a data concentrator computer. The data were first stored on the data concentrator disk and then transferred to a magnetic tape for analysis and report generation by the main research computer. The overall scheme involved modulating the primary signal from the pressure transducer, generating the primary data set of the one-minute values for systolic, diastolic, and mean blood pressures and heart rate by the in-lab microcomputer and the storage, analysis, and report generation by the main research computer.
# The transducers were connected to analog signal conditioning modules. The modules provided a regulated excitation voltage for the transducers, amplification as required to interface the microprocessors and an active low pass filter to compensate for the pressure wave form distortion produced by the flexible, fluid filled, narrow cannula. The distortion was 22-26 Hz and this provided a reliable estimate of both systolic and diastolic blood pressure.
# The microcomputers (one for each of two groups of 16 rats) were connected to the input components through the module interface units, an analog-to-digital converter for the pressure wave form signal and the digital inputs for the dose and event marker switches. The microcomputer controlled the sequential acquisition of data from the modular interface units through an internal synchronous time-of-day clock/time base generator. […]
# [2] = molecular target: T1, adenosine A2 receptor (Rattus norvegicus, UniProt P30543); assay: Adenosine Receptor Binding--A2 Receptor Affinity (RBA2), [3H]NECA, striatal membranes; conditions: read-out: RBA-2 IC50
# T1 construct: Brains were thawed and then kept on ice while the striata were dissected out; tissue Pel-Freez (Rogers, Ark.); host or cells: striata of Sprague-Dawley rats (Long-Evans hooded rats gave essentially identical results)
# T1 sequence (P30543 whole entry): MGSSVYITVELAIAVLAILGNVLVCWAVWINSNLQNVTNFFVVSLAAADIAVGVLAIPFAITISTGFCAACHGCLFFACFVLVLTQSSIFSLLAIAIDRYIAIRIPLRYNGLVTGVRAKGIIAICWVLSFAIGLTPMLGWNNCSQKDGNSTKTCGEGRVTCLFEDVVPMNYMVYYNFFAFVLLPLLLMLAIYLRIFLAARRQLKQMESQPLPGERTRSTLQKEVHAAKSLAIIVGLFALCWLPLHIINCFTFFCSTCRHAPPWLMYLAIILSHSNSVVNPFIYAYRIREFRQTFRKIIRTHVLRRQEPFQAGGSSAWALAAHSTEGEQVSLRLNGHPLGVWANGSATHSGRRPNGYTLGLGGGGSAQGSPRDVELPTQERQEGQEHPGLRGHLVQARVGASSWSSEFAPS
# Description: Adenosine Receptor Binding--A2 Receptor Affinity (RBA2)
# Brains from 200-500 g mixed sex Sprague-Dawley rats were purchased from Pel-Freez (Rogers, Ark.). Fresh brains from male Long-Evans hooded rats (Blue Spruce Farms, Altamont, NY) gave essentially identical results. Brains were thawed and then kept on ice while the striata were dissected out. Striata were disrupted in 10 vol of ice-cold 50 mM Tris.HCl (pH 7.7 at 25° C., pH 8.26 at 5° C.) (Tris) for 30 seconds in a Polytron PT-10 (Brinkmann) at setting 5. The suspension was centrifuged at 50,000 xg for ten minutes, the supernatant discarded, the pellet resuspended in 10 vol ice-cold Tris as above, recentrifuged, resuspended at 1 g/5ml, and stored in plastic vials at -70° C. (stable for at least six months). When needed, tissue was thawed at room temperature, disrupted in a Polytron, and kept on ice until used.
# All incubations were for 60 minutes at 25° C. in 12×75 mm glass tubes containing 1 ml Tris with 5 mg original tissue weight of rat weight of rat striatal membranes, 4 nM [^3 H]--N-ethyl adenosine-5'-carboxamide ([^3 H]NECA), 50 nM N^6 -cyclopentyladenosine (to eliminate A1 receptor binding), 10 mM MgCl2, 0.1 units/ml of adenosine deaminase and 1% dimethylsulfoxide. N^6 -Cyclopentyladenosine was dissolved at 10 mM in 0.02N HCl and diluted in Tris. Stock solutions and dilutions of N^6 -cyclopentyladenosine could be stored at -20° C. for several months. Test compounds were dissolved at 10 mM in dimethylsulfoxide on the same day as the experiment, and diluted in dimethylsulfoxide to 100×the final incubation concentration. Control incubations received an equal volume (10 μl) of dimethylsulfoxide; the resulting concentration of dimethylsulfoxide had no effect on binding. [^3 H]NECA was diluted to 40 nM in Tris. The membrane suspension (5 mg/0.79 ml) contained sufficient MgCl2 and adenosine deaminase to give 10 mM and 0.1 units/ml, respectively, final concentration in the incubation. […] After all additions, the rack of tubes was vortexed, and the tubes were then incubated for 60 min at 25° C. in a shaking water bath. The rack of tubes was vortexed an additional time halfway through the incubation.
# Incubations were terminated by filtration through 2.4 cm GF/B filters under reduced pressure. Each tube was filtered as follows: the contents of the tube were poured on the filter, 4 ml of ice-cold Tris were added to the tube and the contents poured onto the filter, and the filter was washed twice with 4 ml of ice-cold Tris. The filtration was complete in about twelve seconds. Filters were put in scintillation vials, 8 ml of Formula 947 scintillation fluid added, and the vials left overnight, shaken, and counted in a liquid scintillation counter at 40% efficiency.
# Nonspecific binding was defined as binding in the presence of 100 μM N^6 -cyclopentyladenosine, and specific binding was defined as total binding minus nonspecific binding. The IC50 was calculated by weighted nonlinear least squares curve-fitting to the mass-action equation. [formula] where Y is cpm bound
# T is cpm total binding without drug
# S is cpm specific binding without drug
# D is the concentration of drug and
# K is the IC50 of the drug
# Weighting factors were calculated under the assumption that the standard deviation was proportional to the predicted value of Y. Nonspecific binding was treated as a very large (infinite) concentration of drug in the computer analysis.
Structure (SMILES),IC50 [2],Maximum BP ↓ MAP ([1]; 1 mg/kg),Maximum BP ↓ MAP ([1]; 3 mg/kg),Maximum BP ↓ MAP ([1]; 10 mg/kg)
"OC[C@H]1O[C@@H](n2cnc3c(NCC4(c5ccccc5)CC4)ncnc32)[C@H](O)[C@@H]1O [Example 1, N6-((1-Phenylcyclopropyl)methyl)adenosine]",80 nM,13%,23%,23%
"OC[C@H]1O[C@@H](n2cnc3c(NCC4(c5cccc(Cl)c5)CC4)ncnc32)[C@H](O)[C@@H]1O [Example 2, N6-((1-(3-Chlorophenyl)cyclopropyl)methyl)adenosine]",200 nM,–,–,–
"OC[C@H]1O[C@@H](n2cnc3c(NCC4(c5cccs5)CC4)ncnc32)[C@H](O)[C@@H]1O [Example 3, N6-((1-Thien-2-ylcyclopropyl)methyl)adenosine]",8.6 nM,–,43%,–
"O[C@@H]1[C@H](O)[C@@H](CCl)O[C@H]1n1cnc2c(NCC3(c4ccccc4)CC3)ncnc21 [Example 5, 5'-Deoxy-5'-chloro-N6-((1-phenylcyclopropyl)methyl)adenosine]",420 nM,–,–,–
"O[C@@H]1[C@H](O)[C@@H](CCl)O[C@H]1n1cnc2c(NCC3(c4cccs4)CC3)ncnc21 [Example 6, 5'-Chloro-5'-deoxy-N6-((1-thien-2-ylcyclopropyl)methyl)adenosine]",67 nM,–,–,–
"OC[C@H]1O[C@@H](n2cnc3c(NCC4(c5ccccc5)CCC4)ncnc32)[C@H](O)[C@@H]1O [Example 7, N6-((1-Phenylcyclobutyl)methyl)adenosine]",150 nM,–,–,32%
"OC[C@H]1O[C@@H](n2cnc3c(NCC4(c5cccc(Cl)c5)CCC4)ncnc32)[C@H](O)[C@@H]1O [Example 8, N6-((1-(3-Chlorophenyl)cyclobutyl)methyl)adenosine]",320 nM,–,–,–

# Continued, in another order:
IC50 [2],Structure (SMILES),Maximum BP ↓ MAP ([1]; 1 mg/kg),Maximum BP ↓ MAP ([1]; 3 mg/kg),Maximum BP ↓ MAP ([1]; 10 mg/kg)
87 nM,"OC[C@H]1O[C@@H](n2cnc3c(NCC4(c5cccs5)CCC4)ncnc32)[C@H](O)[C@@H]1O [Example 9, N6-((1-Thien-2-ylcyclobutyl)methyl)adenosine]",–,10%,–
460 nM,"OC[C@H]1O[C@@H](n2cnc3c(NCC4(c5ccccc5)CCCC4)ncnc32)[C@H](O)[C@@H]1O [Example 10, N6-((1-Phenylcyclopentyl)methyl)adenosine]",–,–,10%
3200 nM,"OC[C@H]1O[C@@H](n2cnc3c(NCC4(c5ccccc5)CCCCC4)ncnc32)[C@H](O)[C@@H]1O [Example 11, N6-((1-Phenylcyclohexyl)methyl)adenosine]",–,–,5%
1200 nM,"OC[C@H]1O[C@@H](n2cnc3c(NCC4(c5ccc(Cl)cc5)CC4)ncnc32)[C@H](O)[C@@H]1O [Example 12, N6-((1-(4-Chlorophenyl)cyclopropyl)methyl)adenosine]",–,–,23%
